Laboratory results as given in patent US20170208799A1, “SYNERGISTIC ANTIMICROBIAL COMPOSITION” (Dow Global Technologies LLC, priority 2014, published 2017).

Assays:
Assay type in all cases: cell-based
[1] = system: Field isolate, Acid Producing bacteria (APB); test: Synergy test in 96 well microtiter plate against anaerobic acid producing bacteria; conditions: end point, Environmental isolate APB, 24 hours, 32° C.; for Aqucar TN-50 (ppm THNM) - QA: THNM alone
Protocol: The synergism of the biocides combination of the present invention was determined using the method described by Kull, F. C, et al. in Applied Microbiology 9:538-541 (1961). […] If end point could not be established, the highest concentration of biocide tested will be used as the end point for the calculation and the SI will be recorded in “less than or <” values. […] The type of microorganisms used for the test inoculums, the matrix to support optimum microbial growth during the test period and the medium used to enumerate the microorganisms after specified contact time are summarized in Table 2. Mineral salts medium (MSM No Nutrients). The medium contains (in mg/l) the following components: FeCl3.6H2O (1); CaCl2.2H2O (10); MgSO4.7H2O (22.5); (NH4)2SO4 (40); KH2PO4 (10); and K2HPO4 (25.5). After all components are added to deionized water, the pH of the medium is adjusted to 7.5 before use. [table] Synergy tests of THNM alone and in combination with a second biocide against the different test microorganisms were conducted using standard 96 well microtiter plate assays. The test was carried out by adding 500 uL of matrix, 50 μl of tested organism and 50 μl of each biocide into wells of the microtiter plate. The final biocides and test inoculum concentrations in each well were established based on this total volume. For each experiment, the final concentration of the test organisms was in the range of 10^6 to 10^7 cfu/ml. The highest concentration of THNM and second biocide used in this synergy study was 250 and 100 or 50 ppm (depending on the efficacy of the active), respectively. Eight 2-fold dilutions of each biocide were prepared using an automated liquid handling system. The first biocide was added into the well plate horizontally and the second biocide is added after rotating the plate 90 degrees. Columns nine and ten were reserved for each individual biocide to be tested at each concentration level to achieve at least 4-log bacterial kill or 2-log bacterial count (defined as end point) for synergy index calculation. In case the end point was not achieved, the highest biocide concentration tested was used for synergy index calculation. Wells in Column 11 were used as positive controls; they contained only the media and the test organism. The plates were incubated at 25° C. for aerobic bacteria and 32° C. for anaerobic bacteria. Enumeration was performed 24 hours contact time by employing the MPN method. Numbers of surviving bacteria were determined by removing 20 uL of the cell suspension from each well and adding it into 180 ul of enumeration media (i.e., resazurin TSB plates) then serially dilute in a 96-well block. Plates were incubated for 48 hours or until growth is observed in the control wells.

[2] = system: Aerobic bacteria: Klebsiella pneumoniae (ATCC 8308), Bacillus subtilis (ATCC 8473), Pseudomonas aeruginosa (ATCC 15442), Staphylococcus aureus (ATCC 6538); test: Synergy test in 96 well microtiter plate against aerobic bacteria; conditions: end point, 24 hours; for Aqucar TN-50 (ppm THNM) - QA: THNM alone
Protocol: The synergism of the biocides combination of the present invention was determined using the method described by Kull, F. C, et al. in Applied Microbiology 9:538-541 (1961). […] If end point could not be established, the highest concentration of biocide tested will be used as the end point for the calculation and the SI will be recorded in “less than or <” values. […] The type of microorganisms used for the test inoculums, the matrix to support optimum microbial growth during the test period and the medium used to enumerate the microorganisms after specified contact time are summarized in Table 2. Mineral salts medium (MSM). The medium contains (in mg/l) the following components: FeCl3.6H2O (1); CaCl2.2H2O (10); MgSO4.7H2O (22.5); (NH4)2SO4 (40); KH2PO4 (10); K2HPO4 (25.5); Yeast Extract (10); and glucose (100). After all components are added to deionized water, the pH of the medium is adjusted to 7.5 before use. [table] Synergy tests of THNM alone and in combination with a second biocide against the different test microorganisms were conducted using standard 96 well microtiter plate assays. The test was carried out by adding 500 uL of matrix, 50 μl of tested organism and 50 μl of each biocide into wells of the microtiter plate. The final biocides and test inoculum concentrations in each well were established based on this total volume. For each experiment, the final concentration of the test organisms was in the range of 10^6 to 10^7 cfu/ml. The highest concentration of THNM and second biocide used in this synergy study was 250 and 100 or 50 ppm (depending on the efficacy of the active), respectively. Eight 2-fold dilutions of each biocide were prepared using an automated liquid handling system. The first biocide was added into the well plate horizontally and the second biocide is added after rotating the plate 90 degrees. Columns nine and ten were reserved for each individual biocide to be tested at each concentration level to achieve at least 4-log bacterial kill or 2-log bacterial count (defined as end point) for synergy index calculation. In case the end point was not achieved, the highest biocide concentration tested was used for synergy index calculation. Wells in Column 11 were used as positive controls; they contained only the media and the test organism. The plates were incubated at 25° C. for aerobic bacteria and 32° C. for anaerobic bacteria. Enumeration was performed 24 hours contact time by employing the MPN method. Numbers of surviving bacteria were determined by removing 20 uL of the cell suspension from each well and adding it into 180 ul of enumeration media (i.e., resazurin TSB plates) then serially dilute in a 96-well block. Plates were incubated for 48 hours or until growth is observed in the control wells.

[3] = system: Desulfuvibrio longus (D. longus); test: Synergy test in 96 well microtiter plate against anaerobic sulfate reducing bacteria; conditions: end point, 32° C.; for Aqucar TN-50 (ppm THNM) - QA: THNM alone
Protocol: The synergism of the biocides combination of the present invention was determined using the method described by Kull, F. C, et al. in Applied Microbiology 9:538-541 (1961). […] If end point could not be established, the highest concentration of biocide tested will be used as the end point for the calculation and the SI will be recorded in “less than or <” values. […] The type of microorganisms used for the test inoculums, the matrix to support optimum microbial growth during the test period and the medium used to enumerate the microorganisms after specified contact time are summarized in Table 2. SNF (per liter of deionized water): NaCl, 3.12 gm; NaHCO3 0.131 gm; Na2SO4 0.17 gm; 1% KCl Solution (in water) 4.77 g; 1% CaCl2 Solution (in water) 7.2 gm; 1% MgSO4 Solution (in water) 5.45 gm; 1% Na2CO3 Solution (in water) 4.39 gm. Adjust the pH to 7 before use. Modified Baar's medium (MB): MgSO4, 2 g/l; sodium citrate, 5 g/l; CaSO4, 1 g/l; NH4Cl, g/l; K2HPO4, 0.5 g/l; sodium lactate, 3.5 g/l; yeast extract, 1 g/l; Sodium thioglycolate 0. g/l. Fe(NH4)2(SO4)2 1 g/l, deionized water. Adjust the pH to 7.5 before sodium thioglycolate is added. [table] Synergy tests of THNM alone and in combination with a second biocide against the different test microorganisms were conducted using standard 96 well microtiter plate assays. The test was carried out by adding 500 uL of matrix, 50 μl of tested organism and 50 μl of each biocide into wells of the microtiter plate. The final biocides and test inoculum concentrations in each well were established based on this total volume. For each experiment, the final concentration of the test organisms was in the range of 10^6 to 10^7 cfu/ml. The highest concentration of THNM and second biocide used in this synergy study was 250 and 100 or 50 ppm (depending on the efficacy of the active), respectively. Eight 2-fold dilutions of each biocide were prepared using an automated liquid handling system. The first biocide was added into the well plate horizontally and the second biocide is added after rotating the plate 90 degrees. Columns nine and ten were reserved for each individual biocide to be tested at each concentration level to achieve at least 4-log bacterial kill or 2-log bacterial count (defined as end point) for synergy index calculation. In case the end point was not achieved, the highest biocide concentration tested was used for synergy index calculation. Wells in Column 11 were used as positive controls; they contained only the media and the test organism. The plates were incubated at 25° C. for aerobic bacteria and 32° C. for anaerobic bacteria. Enumeration was performed 24 hours contact time by employing the MPN method. Numbers of surviving bacteria were determined by removing 20 uL of the cell suspension from each well and adding it into 180 ul of enumeration media (i.e., resazurin TSB plates) then serially dilute in a 96-well block. Plates were incubated for 48 hours or until growth is observed in the control wells.

In the case of “N-alkyl (50% C14, 40% C12, 10% C16) dimethylbenzyl ammonium Chloride [ADBAC]”, the “Maquat MC1412 (ppm ADBAC) - QB” value ([1]; ADBAC alone) is reported as 12.5 ppm, the “Maquat MC1412 (ppm ADBAC) - QB” value ([2]; ADBAC alone, aerobic bacteria, 25° C.) is reported as over 50 ppm and the “Maquat MC1412 (ppm ADBAC) - QB” value ([3]; ADBAC alone, 24 hours) is reported as 6.25 ppm.
In the case of O=[N+]([O-])C(CO)(CO)CO [THNM, Tris(hydroxymethyl)nitromethane], the “Aqucar TN-50 (ppm THNM) - QA” value ([1]; Table 11) is reported as over 250 ppm, the “Aqucar TN-50 (ppm THNM) - QA” value ([1]; Table 12) is reported as over 250 ppm and the “Aqucar TN-50 (ppm THNM) - QA” value ([1]; Table 13) is reported as over 250 ppm. The “Aqucar TN-50 (ppm THNM) - QA” value ([1]; Table 14) was over 250 ppm, the “Aqucar TN-50 (ppm THNM) - QA” value ([2]; Table 3, aerobic bacteria, 25° C.) was over 250 ppm and the “Aqucar TN-50 (ppm THNM) - QA” value ([2]; Table 4, aerobic bacteria, 25° C.) was over 250 ppm. For the same molecule, the “Aqucar TN-50 (ppm THNM) - QA” value ([2]; Table 5, aerobic bacteria, 25° C.) was over 250 ppm, the “Aqucar TN-50 (ppm THNM) - QA” value ([2]; Table 6) was over 250 ppm and the “Aqucar TN-50 (ppm THNM) - QA” value ([3]; Table 7, 24 hours) was 250.00 ppm. The “Aqucar TN-50 (ppm THNM) - QA” value ([3]; Table 8, 24 hours) was 250.00 ppm, the “Aqucar TN-50 (ppm THNM) - QA” value ([3]; Table 9, 24 hours) was 250.00 ppm and the “Aqucar TN-50 (ppm THNM) - QA” value ([3]; Table 10, 24 hours) was 250.00 ppm.
“Benzalkonium chloride (benzyl-C8-18-alkyldimethyl, chlorides) [BKC]” was tested, and the “BKC (ppm ADBAC) - QB” value ([1]; BKC alone) was 12.50 ppm, the “Benzalkonium Chloride (ppm BKC) - QB” value ([2]; BKC alone, aerobic bacteria, 25° C.) was over 50 ppm and the “BKC (ppm ADBAC) - QB” value ([3]; BKC alone, 24 hours) was 3.13 ppm.
